# Results: patent publication US20070254332A1, “Method for Readily Detecting Class C Beta-Lactamase-Producing Bacteria” (JAPAN HEALTH SCIENCES FOUNDATION, priority 2003, published 2007)
# Key:
# Assay type in all cases: cell-based
# [1] = test system: K. pneumoniae SHV-12 Class A; experiment: Disk test, CAZ disk versus CAZ + APB disk (second aspect); settings: overnight culturing
# Description: (§2) In the same manner as in Embodiment 1, the test bacterium was inoculated onto a Mueller-Hinton agar medium, and KB disks (6 mm in diameter) of CAZ were positioned at least 3 cm apart center-on-center. […] After overnight culturing, the diameters of the growth inhibitory zones around the two CAZ disks were measured.
# C. freundi HKY543 = experiment: as above; settings: overnight culturing
# Description: as §2
# [2] = test system: K. pneumoniae NCB02189 DHA-1 + CTX-M9; experiment: MIC by trace quantity liquid dilution method; settings: Klebsiella pneumoniae
# Description: (§1) Following overnight culturing, the MIC was measured.
# E. coli NS12 CMY-2 = experiment: MIC by trace quantity liquid dilution method; settings: Escherichia coli, NS12CMY2
# Description: as §1
# C. freundii HKY543 = experiment: MIC by trace quantity liquid dilution method; settings: Citrobacter freundii
# Description: as §1
# S. marcescens S94 = experiment: MIC by trace quantity liquid dilution method; settings: Serratia marcescens
# Description: as §1
# P. aeruginosa NCB03-192 = experiment: MIC by trace quantity liquid dilution method; settings: Pseudomonas aeruginosa, NCB03192
# Description: as §1
# E. cloacae HKY226 [3] = experiment: MIC by trace quantity liquid dilution method; settings: Enterobacter cloacae
# Description: as §1
# [4] = test system: Klebsiella pneumoniae NU2936 (MOX-1: Class C); experiment: MIC by trace quantity liquid dilution method
# Description: as §1
# [5] = test system: Klebsiella pneumoniae HKY402 (SHV-12: Class A); experiment: MIC by trace quantity liquid dilution method
# E. cloacae HKY226 [6] = experiment: Disk test, CAZ disk versus CAZ + APB disk (second aspect); settings: overnight culturing
# Description: as §2
# [7] = test system: Klebsiella pneumoniae KP1 15 (IMP-1: Class B); experiment: MIC by trace quantity liquid dilution method
smiles,measurement,setting,value
"CC(C)(O/N=C(\C(=O)N[C@@H]1C(=O)N2C(C(=O)[O-])=C(C[n+]3ccccc3)CS[C@H]12)c1csc(N)n1)C(=O)O [CAZ, ceftazidime]",Inhibitory zone around the disk,[1],No inhibitory zones observed around
same,Inhibitory zone around the disk,C. freundi HKY543,A small inhibitory zone was observed
same,MIC,[2],64 µg/mL
same,MIC,E. coli NS12 CMY-2,64 µg/mL
same,MIC,C. freundii HKY543,64 µg/mL
same,MIC,S. marcescens S94,64 µg/mL
same,MIC,P. aeruginosa NCB03-192,16 µg/mL
same,MIC,E. cloacae HKY226 [3],256 µg/mL
same,MIC,[4],64 µg/mL
same,MIC,[5],> 512 µg/mL
same,Inhibitory zone around the disk,E. cloacae HKY226 [6],No inhibitory zone was observed around
same,MIC,[7],256 µg/mL
